Tests used:
barnyardgrass [1] = assay: Test A pre-/postemergence herbicide test; assay type: in vivo, Echinochloa crus-galli
Summary of the method: (§1)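 Approximately 10 days after treatment in the greenhouse, plants were compared with untreated controls and given a 0–100 visual injury rating. Applications: preemergence directed soil spray; postemergence on 2–10 cm plants at the one- to two-leaf stage.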

kochia = assay: Test A pre-/postemergence herbicide test; assay type: in vivo, Kochia scoparia; conditions: for Plant response rating, Kochia: 0 to 100 scale
Summary of the method: as §1

ragweed = assay: Test A pre-/postemergence herbicide test; assay type: in vivo, Ambrosia elatior; conditions: for Plant response rating, Ragweed: 0 to 100 scale
Summary of the method: as §1

ryegrass, Italian = assay: Test A pre-/postemergence herbicide test; assay type: in vivo, Lolium multiflorum; conditions: for Plant response rating, Ryegrass, Italian: 0 to 100 scale
Summary of the method: as §1

giant foxtail = assay: Test A pre-/postemergence herbicide test; assay type: in vivo, Setaria faberii; conditions: for Plant response rating, Foxtail, Giant: 0 to 100 scale
Summary of the method: as §1

pigweed = assay: Test A pre-/postemergence herbicide test; assay type: in vivo, Amaranthus retroflexus; conditions: for Plant response rating, Pigweed: 0 to 100 scale
Summary of the method: as §1

wheat = assay: Test A pre-/postemergence herbicide test; assay type: in vivo, Triticum aestivum; conditions: Postemergence; for Plant response rating, Wheat: 125 g ai/ha, 0 to 100 scale, 0 no effect, 100 complete control; for Wheat plant response rating (0 to 100 scale, 0 is no effect, 100 is complete control): 500 g ai/ha
Summary of the method: as §1

corn = assay: Test A pre-/postemergence herbicide test; assay type: in vivo, Zea mays; conditions: Postemergence; for Plant response rating, Corn: 125 g ai/ha, 0 to 100 scale, 0 no effect, 100 complete control; for Corn plant response rating (0 to 100 scale, 0 is no effect, 100 is complete control): 500 g ai/ha
Summary of the method: as §1

blackgrass = assay: Test A postemergence herbicide test; assay type: in vivo, Alopecurus myosuroides; conditions: for Plant response rating, Blackgrass: 125 g ai/ha, 0 to 100 scale, 0 no effect, 100 complete control; for Blackgrass plant response rating (0 to 100 scale, 0 is no effect, 100 is complete control): 500 g ai/ha
Summary of the method: (§2)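 Ratings compare treated with untreated plants roughly 10 days after a postemergence application made at the one- to two-leaf stage. Scoring uses 0–100, where 0 means no effect and 100 complete control.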

galium = assay: Test A postemergence herbicide test; assay type: in vivo, Galium aparine; conditions: for Plant response rating, Galium: 125 g ai/ha, 0 to 100 scale, 0 no effect, 100 complete control; for Galium plant response rating (0 to 100 scale, 0 is no effect, 100 is complete control): 500 g ai/ha
Summary of the method: as §2

rice = assay: Test B flooded paddy test; assay type: in vivo, Oryza sativa; conditions: 500 g ai/ha, Flood; scale of 0 to 100 where 0 is no effect and 100 is complete control
Summary of the method: (§3)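 Paddy-water application at a 3 cm flood, young plants having two leaves. Water level maintained; greenhouse, 13–15 days; visual 0–100 control rating.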

sedge, umbrella = assay: Test B flooded paddy test; assay type: in vivo, Cyperus difformis; conditions: 500 g ai/ha, Flood; scale of 0 to 100 where 0 is no effect and 100 is complete control
Summary of the method: as §3

ducksalad = assay: Test B flooded paddy test; assay type: in vivo, Heteranthera limosa; conditions: 500 g ai/ha, Flood; scale of 0 to 100 where 0 is no effect and 100 is complete control
Summary of the method: as §3

barnyardgrass [2] = assay: Test B flooded paddy test; assay type: in vivo, Echinochloa crus-galli; conditions: 500 g ai/ha, Flood; scale of 0 to 100 where 0 is no effect and 100 is complete control
Summary of the method: as §3

[3] = 125 g ai/ha, visual rating, 0 to 100 scale, 0 no effect, 100 complete control, approximately 10 days, preemergence
[4] = Postemergence, 125 g ai/ha, 0 to 100 scale, 0 no effect, 100 complete control
[5] = preemergence, 500 g ai/ha, 0 to 100 scale (0 no effect, 100 complete control)
[6] = 125 g ai/ha, visual rating, 0 no effect, 100 complete control, approximately 10 days, preemergence
[7] = Postemergence, 125 g ai/ha, 0 no effect, 100 complete control

| Structure (SMILES) | Plant response rating, Barnyardgrass (barnyardgrass [1]; [3]) | Plant response rating, Barnyardgrass (barnyardgrass [1]; [4]) | Barnyardgrass plant response rating (0 to 100 scale, 0 is no effect, 100 is complete control) (barnyardgrass [1]; Postemergence, 500 g ai/ha) | Plant response rating, Barnyardgrass (barnyardgrass [1]; [5]) | Plant response rating, Kochia (kochia; [6]) | Plant response rating, Kochia (kochia; [7]) | Kochia plant response rating (0 to 100 scale, 0 is no effect, 100 is complete control) (kochia; Postemergence, 500 g ai/ha) | Plant response rating, Kochia (kochia; preemergence, 500 g ai/ha) | Plant response rating, Ragweed (ragweed; [6]) | Plant response rating, Ragweed (ragweed; [7]) | Ragweed plant response rating (0 to 100 scale, 0 is no effect, 100 is complete control) (ragweed; Postemergence, 500 g ai/ha) | Plant response rating, Ragweed (ragweed; preemergence, 500 g ai/ha) | Plant response rating, Ryegrass, Italian (ryegrass, Italian; [6]) | Plant response rating, Ryegrass, Italian (ryegrass, Italian; [7]) | Ryegrass, Italian plant response rating (0 to 100 scale, 0 is no effect, 100 is complete control) (ryegrass, Italian; Postemergence, 500 g ai/ha) | Plant response rating, Ryegrass, Italian (ryegrass, Italian; preemergence, 500 g ai/ha) | Plant response rating, Foxtail, Giant (giant foxtail; [6]) | Plant response rating, Foxtail, Giant (giant foxtail; [7]) | Foxtail, Giant plant response rating (0 to 100 scale, 0 is no effect, 100 is complete control) (giant foxtail; Postemergence, 500 g ai/ha) | Plant response rating, Foxtail, Giant (giant foxtail; preemergence, 500 g ai/ha) | also measured |
| --- | --- | --- | --- | --- | --- | --- | --- | --- | --- | --- | --- | --- | --- | --- | --- | --- | --- | --- | --- | --- | --- |
| Cc1cc(C2CNC(=O)C2C(=O)Nc2cccc(F)c2F)ccc1F (racemic) [Compound 141] | 90 | 80 | 90 | 90 | 0 | 0 | 20 | 20 | 0 | 0 | 40 | 0 | 0 | 0 | 40 | 20 | 50 | 0 | 50 | 90 | Plant response rating, Pigweed (pigweed; [6]): 0; Plant response rating, Pigweed (pigweed; [7]): 0; Pigweed plant response rating (0 to 100 scale, 0 is no effect, 100 is complete control) (pigweed; Postemergence, 500 g ai/ha): 0; Plant response rating, Pigweed (pigweed; preemergence, 500 g ai/ha): 0; Plant response rating, Wheat (wheat): 0; Wheat plant response rating (0 to 100 scale, 0 is no effect, 100 is complete control) (wheat): 30; Plant response rating, Corn (corn): 0; Corn plant response rating (0 to 100 scale, 0 is no effect, 100 is complete control) (corn): 50; Plant response rating, Blackgrass (blackgrass): 0; Blackgrass plant response rating (0 to 100 scale, 0 is no effect, 100 is complete control) (blackgrass): 50; Plant response rating, Galium (galium): 20; Galium plant response rating (0 to 100 scale, 0 is no effect, 100 is complete control) (galium): 50; Plant response rating, Rice (rice): 0; Plant response rating, Sedge, Umbrella (sedge, umbrella): 0; Plant response rating, Ducksalad (ducksalad): 100; Plant response rating, Barnyardgrass (barnyardgrass [2]): 50 |
| Cc1cc(C2CNC(=O)C2C(=O)Nc2ccc(F)c(F)c2F)ccc1F (racemic) [Compound 142] | 90 | 80 | 90 | 90 | 0 | 0 | 0 | 0 | 0 | 0 | 0 | 0 | 0 | 0 | 20 | 0 | 70 | 0 | 50 | 90 | Plant response rating, Pigweed (pigweed; [6]): 0; Plant response rating, Pigweed (pigweed; [7]): 0; Pigweed plant response rating (0 to 100 scale, 0 is no effect, 100 is complete control) (pigweed; Postemergence, 500 g ai/ha): 0; Plant response rating, Pigweed (pigweed; preemergence, 500 g ai/ha): 0; Plant response rating, Wheat (wheat): 0; Wheat plant response rating (0 to 100 scale, 0 is no effect, 100 is complete control) (wheat): 20; Plant response rating, Corn (corn): 0; Corn plant response rating (0 to 100 scale, 0 is no effect, 100 is complete control) (corn): 0; Plant response rating, Blackgrass (blackgrass): 0; Blackgrass plant response rating (0 to 100 scale, 0 is no effect, 100 is complete control) (blackgrass): 30; Plant response rating, Galium (galium): 0; Galium plant response rating (0 to 100 scale, 0 is no effect, 100 is complete control) (galium): 40; Plant response rating, Rice (rice): 0; Plant response rating, Sedge, Umbrella (sedge, umbrella): 0; Plant response rating, Ducksalad (ducksalad): 100; Plant response rating, Barnyardgrass (barnyardgrass [2]): 75 |
| Cc1ccc(C2CNC(=O)C2C(=O)Nc2cccc(F)c2F)cc1F (racemic) [Compound 146] | 90 | 90 | 90 | 90 | 0 | 0 | 70 | 30 | 0 | 0 | 60 | 30 | 0 | 20 | 60 | 40 | 80 | 0 | 70 | 90 | Plant response rating, Pigweed (pigweed; [6]): 0; Plant response rating, Pigweed (pigweed; [7]): 0; Pigweed plant response rating (0 to 100 scale, 0 is no effect, 100 is complete control) (pigweed; Postemergence, 500 g ai/ha): 0; Plant response rating, Pigweed (pigweed; preemergence, 500 g ai/ha): 0; Plant response rating, Wheat (wheat): 0; Wheat plant response rating (0 to 100 scale, 0 is no effect, 100 is complete control) (wheat): 70; Plant response rating, Corn (corn): 0; Corn plant response rating (0 to 100 scale, 0 is no effect, 100 is complete control) (corn): 50; Plant response rating, Blackgrass (blackgrass): 30; Blackgrass plant response rating (0 to 100 scale, 0 is no effect, 100 is complete control) (blackgrass): 70; Plant response rating, Galium (galium): 40; Galium plant response rating (0 to 100 scale, 0 is no effect, 100 is complete control) (galium): 70; Plant response rating, Rice (rice): 0; Plant response rating, Sedge, Umbrella (sedge, umbrella): 0; Plant response rating, Ducksalad (ducksalad): 100; Plant response rating, Barnyardgrass (barnyardgrass [2]): 80 |

From patent US10294202B2, “Pyrrolidinones as herbicides” (FMC Corporation, priority 2013, dated 2019)
